Experimental data as given in patent US4975372A, “Microbial transformation product of L-683,590” (Merck & Co., Inc., priority 1989, dated 1990).
Several values for one entry are separate records, joined by “and”; a condition that tells them apart may be missing. Equal values may be shown once. Entries after “also recorded” stand apart in the source; their conditions may differ. Read-outs that look alike come from different tables or passages of the source.

Columns and labels:
[1] = reputed; EPO Publication No. 0184162; cited from earlier work
mouse T lymphocytes = experiment: T-cell proliferation assay (ionomycin plus PMA induced, tritiated thymidine uptake); format: cell-based, mouse (C57B1/6)
Protocol: The principle of this assay is to measure the proliferation of mouse T lymphocytes stimulated with the combination of ionomycin plus PMA. A positive sample in this assay will inhibit T-cell proliferation, as indicated by reduced tritiated thymidine uptake.
Purified L-685,487, as prepared by HPLC above, was dissolved in absolute ethanol at 1 mg/ml.
Spleens from C57B1/6 mice were taken under sterile conditions and gently dissociated in ice-cold RPMI 1640 culture medium (GIBCO, Grand Island, N.Y.) supplemented with 10% heat-inactivated fetal calf serum (GIBCO). Cells were pelleted by centrifugation at 1500 rpm for 8 minutes. Contaminating red cells were removed by treating the pellet with ammonium chloride lysing buffer (GIBCO) for 2 minutes at 4° C. Cold medium was added and cells were again centrifuged at 1500 rpm. for 8 minutes. T lymphocytes were then isolated by separation of the cell suspension on nylon wool columns as follows: Nylon wool columns were prepared by packing approximately 4 grams of washed and dried nylon wool into 20 ml plastic syringes. The columns were sterilized by autoclaving at 250° F. for 30 minutes. Nylon wool columns were wetted with warm (37° C.) culture medium and rinsed with the same medium. Washed spleen cells resuspended in warm medium were slowly applied to the nylon wool. The columns were then incubated in an upright position at 37° C. for 1 hour. Non-adherent T lymphocytes were eluted from the columns with warm culture medium and the cell suspensions were spun as above.
Purified T lymphocytes were resuspended at 2.5×10^5 cells/ml in complete culture medium composed of RPMI 1640 medium with 10% heat-inactivated fetal calf serum, […] glutamine, 1 mM sodium pyruvate, 2×10^-5 M 2-mercaptoethanol and 50 μg/ml gentamycin. Ionomycin was added at 250 ng/ml and PMA at 10 ng/ml. The cell suspension was immediately distributed into 96 well flat-bottom microculture plates (Costar) at 200 μl/well. The control, being the medium without test drug, and various below-indicated dilutions of the sample (above-describedpurified L-683,756) to be tested were then added in triplicate wells at 20 μl/well. L-679,934 was used as a standard. The culture plates were then incubated at 37° C. in a humidified atmosphere of 5% CO2 -95% air for 44 hours. The proliferation of T lymphocytes was assessed by measurement of tritiated thymidine incorporation. After 44 hours of culturing, the cells were pulse-labelled with 2 μ Ci/well of tritiated thymidine (NEN, Cambridge, Mass.). After another 4 hours of incubation, cultures were harvested on glass fiber filters using a multiple sample harvester. Radioactivity of filter discs corresponding to individual wells was measured by standard liquid scintillation counting methods (Betacounter). Mean counts per minute of replicate wells were calculated and the results expressed as percent inhibition of tritiated thymidine uptake (proliferation) as follows: [formula]

[2] = Solubility (physical characteristics); format: physicochemical; details: methanol

In the case of `C=CC[C@@H]1/C=C(\C)C[C@H](C)C[C@H](OC)[C@H]2O[C@@](O)(C(=O)C(=O)N3CCCC[C@H]3C(=O)O[C@H](/C(C)=C/[C@@H]3CC[C@@H](O)[C@H](OC)C3)[C@H](C)[C@@H](O)CC1=O)[C@H](C)C[C@@H]2OC` [FK-506], the “effectiveness relative to cyclosporin” value [1] is given as 100 times.
With `C=CC[C@@H]1/C=C(\C)C[C@H](C)C[C@H](OC)[C@H]2O[C@@](O)(C(=O)C(=O)N3CCCC[C@H]3C(=O)O[C@H](/C(C)=C/[C@@H]3CC[C@@H](O)[C@H](OC)C3)[C@H](C)[C@@H](O)CC1=O)[C@H](C)C[C@@H]2OC.O` [L679,934, reference compound] the “% inhibition, standard” value (mouse T lymphocytes; 10 ng/ml) was 99%.
Compound `CC[C@@H]1/C=C(\C)CC(C)C[C@H](OC)C(O)[C@@H]2CC(C)C(O)(O2)C(=O)C(=O)N2CCCC[C@H]2C(=O)O[C@H](/C(C)=C/[C@@H]2CC[C@@H](O)C(OC)C2)[C@H](C)C(O)CC1=O` (stereo partly drawn) [L-685,487] has an inhibition at 0.00058 µg/mL (mouse T lymphocytes; Mus musculus, T-lymphocyte, 0.58 ng/ml) of 0%, an inhibition at 0.00087 µg/mL (mouse T lymphocytes; Mus musculus, T-lymphocyte, 0.87 ng/ml) of 0% and an inhibition at 0.0013 µg/mL (mouse T lymphocytes; Mus musculus, T-lymphocyte, 1.3 ng/ml) of 9%. It also gave an inhibition at 0.0019 µg/mL (mouse T lymphocytes; Mus musculus, T-lymphocyte, 1.9 ng/ml) of 10%, an inhibition at 0.0029 µg/mL (mouse T lymphocytes; Mus musculus, T-lymphocyte, 2.9 ng/ml) of 10% and an inhibition at 0.0044 µg/mL (mouse T lymphocytes; Mus musculus, T-lymphocyte, 4.4 ng/ml) of 39%. The inhibition at 0.0066 µg/mL (mouse T lymphocytes; Mus musculus, T-lymphocyte, 6.6 ng/ml) was 71%, the inhibition at 0.0099 µg/mL (mouse T lymphocytes; Mus musculus, T-lymphocyte, 9.9 ng/ml) was 88% and the inhibition at 0.015 µg/mL (mouse T lymphocytes; Mus musculus, T-lymphocyte, 15.0 ng/ml) was 92%. It also gave an inhibition at 0.022 µg/mL (mouse T lymphocytes; Mus musculus, T-lymphocyte, 22.0 ng/ml) of 98%, an inhibition at 0.033 µg/mL (mouse T lymphocytes; Mus musculus, T-lymphocyte, 33.0 ng/ml) of 99% and an inhibition at 0.05 µg/mL (mouse T lymphocytes; Mus musculus, T-lymphocyte, 50.0 ng/ml) of 99%. The IC50 (mouse T lymphocytes; Mus musculus, T-lymphocyte, T-cell proliferation, 3H-thymidine pulse 4 hours, harvest at 48 hours, read-out: IC50) was 0.0049 µg/mL and 6.3 nM, the IC50 (mouse T lymphocytes; Mus musculus, T-lymphocyte, generally in the range, read-out: IC50, general range) was 6 to 12 nM and the “Inhibition of proliferation upon addition of IL2” value (mouse T lymphocytes; addition of 50 units/m of recombinant human IL2) was “Inhibition of proliferation was reversed”. For the same compound, the “inhibition of T-cell activation (immunosuppressive activity)” value (mouse T lymphocytes; qualitative) was “positive inhibition of T-cell activation; also recorded: positive immunosuppressive activity” and the Solubility [2] was “Solubility in methanol”.
